Legend:
[1] = test system: HCV replicon; assay: HCV Replicon Luciferase Reporter Assay (LE Assay); type: cell-based, HCV genotype 1b
Method: The HCV replicon luciferase assay was developed to monitor the inhibitory effects of compounds described in the disclosure on HCV viral replication. Utilization of a replicon luciferase reporter assay was first described by Krieger et al (Krieger N, Lohmann V, and Bartenschlager R, J. Virol. 75(10):4614-4624 (2001)). HUH-7 cells, constitutively expressing the HCV replicon, were grown in Dulbeccors Modified Eagle Media (DMEM) (Gibco-BRL) containing 10% Fetal calf serum (FCS) (Sigma) and 1 mg/ml G418 (Gibco-BRL). Compounds were serially diluted 3 folds in DMSO for a twenty-point titration and subsequently transferred to sterile 384-well tissue-culture treated plates (Coming cat #3571). The plates were then seeded with 50 μl of cells at a density of 3.0×10^3 cells/well in DMEM containing 4% FCS (final DMSO concentration at 0.5%). After 3 days incubation at 37° C., cells were analyzed for Renilla Luciferase activity using the EnduRen as substrate (Promega cat #E6485). The EnduRen substrate was diluted in DMEM and then added to the plates to a final concentration of 7.5 μM. The plates were incubated for 2 hrs at 37° C. and then read immediately for 30 seconds with Viewlux Imager (PerkinElmer) using a luminescence program. To assess cytotoxicity of compounds, CC50 values were generated by multiplexing the EnduRen-containing plates with Cell Titer-Blue (Promega, cat #G8082). 3 μl of Cell-Titer Blue was added to each well and incubated for 8 hrs at 37° C. The fluorescence signal from each well was read, with an excitation wavelength at 525/10 nm and an emission wavelength of 598/10 nm, using the Viewlux Imager.

[2] = test system: HCV replicon; assay: HCV replicon FRET / luciferase assay (NeoLuc); type: cell-based, HCV genotype 1b; conditions: HCV replicon cells
Description: FRET Assay Preparation. To perform the HCV FRET screening assay, 96-well cell culture plates were used. The FRET peptide (Anaspec, Inc.) (Taliani et al., Anal. Biochem. 1996, 240, 60-67) contains a fluorescence donor, EDANS, near one end of the peptide and an acceptor, DABCYL, near the other end. The fluorescence of the peptide is quenched by […] resonance energy transfer (RET) between the donor and the acceptor, but as the NS3 protease cleaves the peptide the products are released from RET quenching and the fluorescence of the donor becomes apparent. The assay reagent was made as follows: 5× cell Luciferase cell culture lysis reagent from Promega (#E153A) diluted to 1× with dH2O, NaCl added to 150 mM final, the FRET peptide diluted to 20 μM final from a 2 mM stock.
To prepare plates, HCV replicon cells, with or without a Renilla luciferase reporter gene, were trypsinized and placed into each well of a 96-well plate with titrated test compounds added in columns 3 through 12; columns 1 and 2 contained a control compound (HCV protease inhibitor), and the bottom row contained cells without compound. The plates were then placed in a CO2 incubator at 37° C.
Assays. Subsequent to addition of the test compounds described above (FRET Assay Preparation), at various times the plate was removed and Alamar blue solution (Trek Diagnostics, #00-100) was added per well as a measure of cellular toxicity. After reading in a Cytoflour 4000 instrument (PE Biosystems), plates were rinsed with PBS and then used for FRET assay by the addition of 30 ul of the FRET peptide assay reagent described above (FRET Assay Preparation) per well. The plate was then placed into the Cytoflour 4000 instrument which had been set to 340 excite/490 emission, automatic mode for 20 cycles and the plate read in a kinetic mode. Typically, the signal to noise using an endpoint analysis after the reads was at least three-fold. Alternatively, after Alamar blue reading, plates were rinsed with PBS, 50 ul of DMEM (high glucose) without phenol red was added and plates were then used for luciferase assay using the Promega Dual-Glo Luciferase Assay System,
Compound analysis was deteiniined by quantification of the relative HCV replicon inhibition and the relative cytotoxicity values. To calculate cytoxicity values, the average Alamar Blue fluorescence signals from the control wells were set as 100% non-toxic. The individual signals in each of the compound test wells were then divided by the average control signal and multiplied by 100% to determine […]. To calculate the HCV replicon inhibition values, an average background value was obtained from the two wells containing the highest amount of HCV protease inhibitor at the end of the assay period. These numbers were similar to those obtained from naïve Huh-7 cells.
The background numbers were then subtracted from the average signal obtained from the control wells and this number was used as 100% activity. The individual signals in each of the compound test wells were then divided by the averaged control values after background subtraction and multiplied by 100% to determine percent activity. EC50 values for a protease inhibitor titration were calculated as the concentration which caused a 50% reduction in FRET or luciferase activity. The two numbers generated for the compound plate, percent cytoxicity and percent activity were used to determine compounds of interest for further analysis.

[3] = Hepatitis C virus, genotype 1b, Huh-7, read-out: LE NeoLuc EC50, Table 1, HUH-7 cells, genotype 1b replicon
[4] = Hepatitis C virus, genotype 1b, read-out: NeoLuc EC50, Table 1, genotype 1b
[5] = Hepatitis C virus, Huh-7, Table 2, HUH-7 cells, read-out: LE NeoLuc EC50
[6] = Hepatitis C virus, Table 2, read-out: NeoLuc EC50
[7] = Table 2, HUH-7 cells, read-out: LE NeoLuc EC50

| SMILES | EC50 [1, 3] [nM] | EC50 [2, 4] [nM] | also measured |
| --- | --- | --- | --- |
| COc1ccc2c(c1)C1CC1(C(=O)N1CC34COCC3(CN(C(C)=O)C4)C1)Cn1c-2c(C2CCCCC2)c2ccc(C(=O)NS(=O)(=O)CC(C)C)cc21 (centres unmarked) | 500 to 1000 | 1.9 to 500 |  |
| COc1ccc2c(c1)C=C(C(=O)N1CC34CNCC3(COC4)C1)Cn1c-2c(C2CCCCC2)c2ccc(C(=O)NS(=O)(=O)C3CC3)cc21 (centres unmarked) | 1.9 to 500 | 1.9 to 500 |  |
| COc1ccc2c(c1)CC(C(=O)N1CC34CNCC3(COC4)C1)Cn1c-2c(C2CCCCC2)c2ccc(C(=O)NS(=O)(=O)C3CC3)cc21 (centres unmarked) | 500 to 5000 | > 1000 |  |
| COc1ccc2c(c1)[C@@H]1C[C@]1(C(=O)N1CC34CN(C)CC3(CN(C)C4)C1)Cn1c-2c(C2CCCCC2)c2ccc(C(=O)NS(=O)(=O)C(C)C)cc21 (some centres unmarked) | 1.9 to 500 | 1.9 to 500 |  |
| COc1ccc2c(c1)C1CC1(C(=O)N1CC34COCC3(CN(C)C4)C1)Cn1c-2c(C2CCCCC2)c2ccc(C(=O)NS(=O)(=O)N(C)C)cc21 (centres unmarked) [drawing 106] |  |  | EC50 [1, 5]: 40 nM; EC50 [2, 6]: 20 nM |
| COc1ccc2c(c1)[C@@H]1C[C@]1(C(=O)N1CC34CNCC3(CN(C)C4)C1)Cn1c-2c(C2CCCCC2)c2ccc(C(=O)NS(=O)(=O)C(C)C)cc21 (some centres unmarked) | 500 to 1000 | 1.9 to 500 |  |
| COc1ccc2c(c1)C1CC1(C(=O)N1CC34CNCC3(COC4)C1)Cn1c-2c(C2CCCCC2)c2ccc(C(=O)NS(=O)(=O)N(C)C)cc21 (centres unmarked) | 1.9 to 500 | 1.9 to 500 |  |
| COc1ccc2c(c1)CC(C(=O)N1CC34CNCC3(CN(C)C4)C1)Cn1c-2c(C2CCCCC2)c2ccc(C(=O)NS(=O)(=O)C3CC3)cc21 (centres unmarked) | 500 to 1000 | > 1000 |  |
| COc1ccc2c(c1)[C@@H]1C[C@]1(C(=O)N1CC34COCC3(C1)N(C(C)=O)C4)Cn1c-2c(C2CCCCC2)c2ccc(C(=O)NS(=O)(=O)C(C)C)cc21 (some centres unmarked) [drawing 109] |  |  | EC50 [1, 7]: 90 nM; EC50 ([2]; Table 2, read-out: NeoLuc EC50): 130 nM |
| COc1ccc2c(c1)[C@@H]1C[C@]1(C(=O)N1CC34COCC3(C1)N(C(C)=O)C4)Cn1c-2c(C2CCCCC2)c2ccc(C(=O)NS(=O)(=O)N(C)C)cc21 (some centres unmarked) | 1.9 to 500 | 1.9 to 500 |  |
| COc1ccc2c(c1)C1CC1(C(=O)N1CC34COCC3(CN(C)C4)C1)Cn1c-2c(C2CCCCC2)c2ccc(C(=O)NS(=O)(=O)N(C)C)cc21 (centres unmarked) [drawing 61] | 1.9 to 500 | 1.9 to 500 |  |
| C=C(C)S(=O)(=O)NC(=O)c1ccc2c(C3CCCCC3)c3n(c2c1)C[C@@]1(C(=O)N2CC45COCC4(CN(C)C5)C2)C[C@H]1c1cc(OC)ccc1-3 (some centres unmarked) | 1.9 to 500 | 1.9 to 500 |  |
| COc1ccc2c(c1)C1CC1(C(=O)N1CC34CNCC3(CN(C)C4)C1)Cn1c-2c(C2CCCCC2)c2ccc(C(=O)NS(=O)(=O)N(C)C)cc21 (centres unmarked) | 1.9 to 500 | 1.9 to 500 |  |
| COc1ccc2c(c1)CC(C(=O)N1CC34COCC3(CN(C)C4)C1)Cn1c-2c(C2CCCCC2)c2ccc(C(=O)NS(=O)(=O)C3CC3)cc21 (centres unmarked) | 1.9 to 500 | 1.9 to 500 |  |
| COc1ccc2c(c1)C=C(C(=O)N1CC34COCC3(CN(C)C4)C1)Cn1c-2c(C2CCCCC2)c2ccc(C(=O)NS(=O)(=O)C3CC3)cc21 (centres unmarked) | 1.9 to 500 | 1.9 to 500 |  |
| COc1ccc2c(c1)CC(C(=O)N1CC34CN(C)CC3(CN(C)C4)C1)Cn1c-2c(C2CCCCC2)c2ccc(C(=O)NS(=O)(=O)N(C)C)cc21 (centres unmarked) | 1.9 to 500 | 1.9 to 500 |  |
| COc1ccc2c(c1)[C@@H]1C[C@]1(C(=O)N1CC34COCC3(CN(C)C4)C1)Cn1c-2c(C2CCCCC2)c2ccc(C(=O)NS(=O)(=O)C(C)C)cc21 (some centres unmarked) | 1.9 to 500 | 1.9 to 500 |  |
| COc1ccc2c(c1)C1CC1(C(=O)N1CC34CN(C)CC3(CN(C)C4)C1)Cn1c-2c(C2CCCCC2)c2ccc(C(=O)NS(=O)(=O)N(C)C)cc21 (centres unmarked) | 1.9 to 500 | 1.9 to 500 |  |
| CCN1CC23COCC2(C1)CN(C(=O)[C@]12C[C@H]1c1cc(OC)ccc1-c1c(C4CCCCC4)c4ccc(C(=O)NS(=O)(=O)C(C)C)cc4n1C2)C3 (some centres unmarked) | 1.9 to 500 | 1.9 to 500 |  |
| COc1ccc2c(c1)[C@@H]1C[C@]1(C(=O)N1CC34COCC3(C1)CN(C1CC1)C4)Cn1c-2c(C2CCCCC2)c2ccc(C(=O)NS(=O)(=O)C(C)C)cc21 (some centres unmarked) | 1.9 to 500 | 1.9 to 500 |  |
| COc1ccc2c(c1)[C@@H]1C[C@]1(C(=O)N1CC34CNCC3(COC4)C1)Cn1c-2c(C2CCCCC2)c2ccc(C(=O)NS(=O)(=O)C(C)C)cc21 (some centres unmarked) | 1.9 to 500 | 1.9 to 500 |  |
| COc1ccc2c(c1)C=C(C(=O)N1CC34CN(C)CC3(CN(C)C4)C1)Cn1c-2c(C2CCCCC2)c2ccc(C(=O)NS(=O)(=O)N(C)C)cc21 (centres unmarked) | 1.9 to 500 | 1.9 to 500 |  |
| COc1ccc2c(c1)C=C(C(=O)N1CC34CNCC3(COC4)C1)Cn1c-2c(C2CCCCC2)c2ccc(C(=O)NS(=O)(=O)N(C)C)cc21 (centres unmarked) | 1.9 to 500 | 1.9 to 500 |  |
| COc1ccc2c(c1)C=C(C(=O)N1CC34COCC3(CN(C)C4)C1)Cn1c-2c(C2CCCCC2)c2ccc(C(=O)NS(=O)(=O)N(C)C)cc21 (centres unmarked) | 1.9 to 500 | 1.9 to 500 |  |
| COc1ccc2c(c1)C=C(C(=O)N1CC34COCC3(C1)N(C(C)=O)C4)Cn1c-2c(C2CCCCC2)c2ccc(C(=O)NS(=O)(=O)N(C)C)cc21 (centres unmarked) | 1.9 to 500 | 1.9 to 500 |  |
| COc1ccc2c(c1)C1CC1(C(=O)N1CC34CNCC3(CN(C)C4)C1)Cn1c-2c(C2CCCCC2)c2ccc(C(=O)NS(=O)(=O)C3CC3)cc21 (centres unmarked) |  |  | EC50 [1, 5]: 2100 nM; EC50 [2, 6]: > 1000 nM |
| COc1ccc2c(c1)[C@@H]1C[C@]1(C(=O)N1CC34COCC3(C1)N(C(C)=O)C4)Cn1c-2c(C2CCCCC2)c2ccc(C(=O)NS(=O)(=O)C(C)C)cc21 (some centres unmarked) [drawing 73] | 1.9 to 500 | 1.9 to 500 |  |
| COc1ccc2c(c1)[C@@H]1C[C@]1(C(=O)N1CC34COCC3(C1)N(C(C)=O)C4)Cn1c-2c(C2CCCCC2)c2ccc(C(=O)NS(=O)(=O)C(C)C)cc21 (some centres unmarked) [drawing 110] |  |  | EC50 [1, 7]: 30 nM; EC50 ([2]; Table 2, read-out: NeoLuc EC50): 10 nM |

— patent US8143244B2, “Cyclopropyl fused indolobenzazepine HCV NS5B inhibitors” (Bristol-Myers Squibb Company, priority 2009, dated 2012)
